These results are taken from paper PMC4208292 (Bioorganic & medicinal chemistry letters, 2012).

Each structure is given as a SMILES string. Entries after “also recorded” stand apart in the source; their conditions may differ.

For one data set, the target named is smMLCK (Homo sapiens, UniProt Q15746). As to the kind of experiment: Radioactivity-based enzymatic kinase panel. Type of data set: biochemical.
A further data set addresses ALK (Homo sapiens, UniProt Q9UM73). As to the kind of experiment: Kinase-binding assay. Conditions: 10 μM; KINOMEscan profile.
Another data set concerns the target T1, FLT3(D835Y) (Homo sapiens, UniProt P36888, D835Y).
T1 sequence (P36888 27-993 D835Y): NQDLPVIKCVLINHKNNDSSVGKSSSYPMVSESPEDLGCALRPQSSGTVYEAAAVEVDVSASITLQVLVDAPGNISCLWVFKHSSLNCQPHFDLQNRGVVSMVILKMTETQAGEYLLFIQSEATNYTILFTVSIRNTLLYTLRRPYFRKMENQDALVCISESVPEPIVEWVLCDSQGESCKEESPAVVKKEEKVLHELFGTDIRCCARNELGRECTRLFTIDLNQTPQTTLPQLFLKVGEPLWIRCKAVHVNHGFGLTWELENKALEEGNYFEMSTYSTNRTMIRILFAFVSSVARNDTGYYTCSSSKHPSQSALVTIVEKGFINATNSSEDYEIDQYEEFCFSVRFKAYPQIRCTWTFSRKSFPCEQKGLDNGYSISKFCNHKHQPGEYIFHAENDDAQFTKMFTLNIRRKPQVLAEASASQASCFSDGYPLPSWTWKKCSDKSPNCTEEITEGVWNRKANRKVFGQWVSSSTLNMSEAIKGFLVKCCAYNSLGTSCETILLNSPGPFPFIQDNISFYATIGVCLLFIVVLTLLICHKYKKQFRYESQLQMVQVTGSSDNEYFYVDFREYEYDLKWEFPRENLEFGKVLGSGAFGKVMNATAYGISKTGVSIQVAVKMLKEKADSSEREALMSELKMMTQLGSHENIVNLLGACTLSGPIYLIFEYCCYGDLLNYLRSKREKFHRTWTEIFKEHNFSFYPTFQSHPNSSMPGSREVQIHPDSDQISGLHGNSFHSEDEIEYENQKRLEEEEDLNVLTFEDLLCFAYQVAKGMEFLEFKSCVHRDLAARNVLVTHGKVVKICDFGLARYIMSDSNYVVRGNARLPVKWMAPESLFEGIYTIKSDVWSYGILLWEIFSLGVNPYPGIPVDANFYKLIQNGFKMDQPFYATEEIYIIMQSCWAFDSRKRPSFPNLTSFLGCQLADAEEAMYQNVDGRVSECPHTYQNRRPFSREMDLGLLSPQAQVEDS
As to the kind of experiment: Kinase-binding assay. The settings on record: 10 μM; KINOMEscan profile.

Data set [1] is described as follows: Pharmacokinetic profile in mice. Type of data set: in vivo. The settings on record: male, Swiss Albino, mouse, brain, iv, 1 mg/kg.
For another data set, the target named is LRRK2 (Mus musculus, UniProt Q5S006). Description: Pharmacodynamic study of LRRK2 Ser910/Ser935 phosphorylation in mouse tissues. Type of data set: in vivo. The settings on record: intraperitoneal 100 mg/kg, normal mice.
Data set [2] has as its target T2, wild-type LRRK2 (GST-LRRK2(1326–2517)) (Homo sapiens, UniProt Q5S007).
T2 sequence (Q5S007 1326-2517): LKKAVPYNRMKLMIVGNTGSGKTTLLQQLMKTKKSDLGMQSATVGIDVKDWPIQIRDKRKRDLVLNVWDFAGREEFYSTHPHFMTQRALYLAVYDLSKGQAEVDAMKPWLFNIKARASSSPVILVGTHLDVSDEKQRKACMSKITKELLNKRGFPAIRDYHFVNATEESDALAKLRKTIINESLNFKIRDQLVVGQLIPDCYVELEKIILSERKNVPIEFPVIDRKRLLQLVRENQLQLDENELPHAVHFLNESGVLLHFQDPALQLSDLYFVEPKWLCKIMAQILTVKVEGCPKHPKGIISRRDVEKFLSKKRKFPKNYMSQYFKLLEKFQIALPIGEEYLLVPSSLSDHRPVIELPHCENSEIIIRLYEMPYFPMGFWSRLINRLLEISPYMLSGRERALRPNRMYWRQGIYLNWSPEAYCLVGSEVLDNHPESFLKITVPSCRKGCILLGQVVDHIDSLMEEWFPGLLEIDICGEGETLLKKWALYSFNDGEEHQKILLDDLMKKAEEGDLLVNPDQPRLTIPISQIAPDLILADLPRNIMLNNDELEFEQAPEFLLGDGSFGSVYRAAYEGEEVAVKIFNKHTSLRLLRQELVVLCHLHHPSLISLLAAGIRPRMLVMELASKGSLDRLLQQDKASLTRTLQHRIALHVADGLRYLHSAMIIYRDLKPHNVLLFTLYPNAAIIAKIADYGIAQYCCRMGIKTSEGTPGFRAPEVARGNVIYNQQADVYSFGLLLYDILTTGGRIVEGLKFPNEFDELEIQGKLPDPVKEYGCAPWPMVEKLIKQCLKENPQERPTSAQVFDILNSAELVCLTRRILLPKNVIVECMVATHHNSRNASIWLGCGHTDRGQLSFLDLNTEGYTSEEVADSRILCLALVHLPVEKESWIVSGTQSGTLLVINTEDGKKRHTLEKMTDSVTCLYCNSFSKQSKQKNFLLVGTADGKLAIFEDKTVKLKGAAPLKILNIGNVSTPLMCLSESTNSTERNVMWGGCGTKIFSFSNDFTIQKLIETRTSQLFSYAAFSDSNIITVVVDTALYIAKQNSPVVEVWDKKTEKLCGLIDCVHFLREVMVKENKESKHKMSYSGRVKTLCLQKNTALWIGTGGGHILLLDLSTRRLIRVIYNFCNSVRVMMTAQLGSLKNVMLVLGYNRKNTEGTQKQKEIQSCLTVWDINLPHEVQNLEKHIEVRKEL
Description: LRRK2 enzyme activity assay.

In another data set the target is GFP-LRRK2[A2016T] (Homo sapiens, UniProt Q5S007, A2016T). As to the kind of experiment: Ser910/Ser935 phosphorylation immunoblot in stably transfected HEK293 cells. Conditions: 90 min.
Sequence of GFP-LRRK2[A2016T] (Q5S007 whole entry A2016T): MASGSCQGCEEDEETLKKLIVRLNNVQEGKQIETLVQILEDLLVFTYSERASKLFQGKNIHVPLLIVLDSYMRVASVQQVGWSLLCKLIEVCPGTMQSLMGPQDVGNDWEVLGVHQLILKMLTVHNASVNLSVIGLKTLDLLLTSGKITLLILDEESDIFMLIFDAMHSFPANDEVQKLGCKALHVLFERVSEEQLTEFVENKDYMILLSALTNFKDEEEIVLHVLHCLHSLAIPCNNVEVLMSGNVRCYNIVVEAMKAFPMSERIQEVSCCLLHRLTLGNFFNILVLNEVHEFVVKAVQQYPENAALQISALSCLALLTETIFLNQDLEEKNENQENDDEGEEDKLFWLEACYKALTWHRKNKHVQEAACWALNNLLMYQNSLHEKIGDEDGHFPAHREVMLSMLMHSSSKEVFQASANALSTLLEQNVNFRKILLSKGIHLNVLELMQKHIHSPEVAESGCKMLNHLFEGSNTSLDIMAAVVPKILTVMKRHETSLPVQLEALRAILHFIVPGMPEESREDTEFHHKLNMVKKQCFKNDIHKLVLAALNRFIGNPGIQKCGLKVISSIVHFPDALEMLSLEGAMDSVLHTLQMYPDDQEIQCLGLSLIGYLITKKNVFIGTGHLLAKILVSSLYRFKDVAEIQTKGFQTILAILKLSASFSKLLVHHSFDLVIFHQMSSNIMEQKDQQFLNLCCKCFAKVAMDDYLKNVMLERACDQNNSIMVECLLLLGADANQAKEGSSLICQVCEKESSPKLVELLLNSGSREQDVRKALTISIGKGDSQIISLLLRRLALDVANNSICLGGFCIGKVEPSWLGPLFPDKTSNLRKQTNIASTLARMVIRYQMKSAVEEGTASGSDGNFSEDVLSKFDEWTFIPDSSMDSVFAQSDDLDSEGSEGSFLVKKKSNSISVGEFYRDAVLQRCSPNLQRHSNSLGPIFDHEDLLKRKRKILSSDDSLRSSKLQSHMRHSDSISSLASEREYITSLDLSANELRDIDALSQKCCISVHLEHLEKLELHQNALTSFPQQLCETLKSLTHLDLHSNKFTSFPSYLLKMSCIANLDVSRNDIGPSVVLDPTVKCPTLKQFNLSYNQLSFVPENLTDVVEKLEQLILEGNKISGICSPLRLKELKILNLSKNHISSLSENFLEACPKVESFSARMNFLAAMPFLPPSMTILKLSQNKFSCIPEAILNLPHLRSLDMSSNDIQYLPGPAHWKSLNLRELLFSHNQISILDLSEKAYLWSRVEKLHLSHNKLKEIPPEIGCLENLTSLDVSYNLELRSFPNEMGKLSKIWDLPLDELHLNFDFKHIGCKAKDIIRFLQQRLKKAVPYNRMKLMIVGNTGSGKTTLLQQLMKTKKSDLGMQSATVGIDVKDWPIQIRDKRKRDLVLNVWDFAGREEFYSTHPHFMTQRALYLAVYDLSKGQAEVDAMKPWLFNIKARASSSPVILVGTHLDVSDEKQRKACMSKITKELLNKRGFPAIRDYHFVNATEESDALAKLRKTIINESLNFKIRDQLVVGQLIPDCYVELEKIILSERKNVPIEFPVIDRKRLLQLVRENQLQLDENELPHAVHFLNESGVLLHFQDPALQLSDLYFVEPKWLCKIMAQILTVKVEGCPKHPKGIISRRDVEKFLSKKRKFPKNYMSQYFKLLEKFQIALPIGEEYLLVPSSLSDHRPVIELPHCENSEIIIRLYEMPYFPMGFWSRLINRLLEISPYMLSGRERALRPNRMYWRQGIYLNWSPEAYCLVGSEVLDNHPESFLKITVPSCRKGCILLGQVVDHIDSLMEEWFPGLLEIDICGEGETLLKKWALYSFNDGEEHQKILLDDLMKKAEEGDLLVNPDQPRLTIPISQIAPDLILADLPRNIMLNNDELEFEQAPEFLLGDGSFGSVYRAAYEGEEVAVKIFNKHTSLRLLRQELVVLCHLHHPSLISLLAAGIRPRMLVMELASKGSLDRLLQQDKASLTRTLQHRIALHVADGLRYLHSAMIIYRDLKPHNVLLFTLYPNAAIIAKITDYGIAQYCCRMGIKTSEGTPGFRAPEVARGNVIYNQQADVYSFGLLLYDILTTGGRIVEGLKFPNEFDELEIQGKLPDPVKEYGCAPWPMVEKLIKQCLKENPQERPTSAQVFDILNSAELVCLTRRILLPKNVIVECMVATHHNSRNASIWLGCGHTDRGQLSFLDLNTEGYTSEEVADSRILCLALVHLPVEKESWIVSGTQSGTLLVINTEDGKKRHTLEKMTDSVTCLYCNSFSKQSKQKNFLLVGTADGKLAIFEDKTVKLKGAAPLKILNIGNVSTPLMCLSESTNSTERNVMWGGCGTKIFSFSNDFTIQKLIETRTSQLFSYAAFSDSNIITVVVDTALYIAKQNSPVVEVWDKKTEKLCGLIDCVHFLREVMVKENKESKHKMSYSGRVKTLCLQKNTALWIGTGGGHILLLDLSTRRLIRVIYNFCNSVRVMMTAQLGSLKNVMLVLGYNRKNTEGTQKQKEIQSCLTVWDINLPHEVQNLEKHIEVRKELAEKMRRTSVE

Sequence of LRRK2 (Q5S006 whole entry): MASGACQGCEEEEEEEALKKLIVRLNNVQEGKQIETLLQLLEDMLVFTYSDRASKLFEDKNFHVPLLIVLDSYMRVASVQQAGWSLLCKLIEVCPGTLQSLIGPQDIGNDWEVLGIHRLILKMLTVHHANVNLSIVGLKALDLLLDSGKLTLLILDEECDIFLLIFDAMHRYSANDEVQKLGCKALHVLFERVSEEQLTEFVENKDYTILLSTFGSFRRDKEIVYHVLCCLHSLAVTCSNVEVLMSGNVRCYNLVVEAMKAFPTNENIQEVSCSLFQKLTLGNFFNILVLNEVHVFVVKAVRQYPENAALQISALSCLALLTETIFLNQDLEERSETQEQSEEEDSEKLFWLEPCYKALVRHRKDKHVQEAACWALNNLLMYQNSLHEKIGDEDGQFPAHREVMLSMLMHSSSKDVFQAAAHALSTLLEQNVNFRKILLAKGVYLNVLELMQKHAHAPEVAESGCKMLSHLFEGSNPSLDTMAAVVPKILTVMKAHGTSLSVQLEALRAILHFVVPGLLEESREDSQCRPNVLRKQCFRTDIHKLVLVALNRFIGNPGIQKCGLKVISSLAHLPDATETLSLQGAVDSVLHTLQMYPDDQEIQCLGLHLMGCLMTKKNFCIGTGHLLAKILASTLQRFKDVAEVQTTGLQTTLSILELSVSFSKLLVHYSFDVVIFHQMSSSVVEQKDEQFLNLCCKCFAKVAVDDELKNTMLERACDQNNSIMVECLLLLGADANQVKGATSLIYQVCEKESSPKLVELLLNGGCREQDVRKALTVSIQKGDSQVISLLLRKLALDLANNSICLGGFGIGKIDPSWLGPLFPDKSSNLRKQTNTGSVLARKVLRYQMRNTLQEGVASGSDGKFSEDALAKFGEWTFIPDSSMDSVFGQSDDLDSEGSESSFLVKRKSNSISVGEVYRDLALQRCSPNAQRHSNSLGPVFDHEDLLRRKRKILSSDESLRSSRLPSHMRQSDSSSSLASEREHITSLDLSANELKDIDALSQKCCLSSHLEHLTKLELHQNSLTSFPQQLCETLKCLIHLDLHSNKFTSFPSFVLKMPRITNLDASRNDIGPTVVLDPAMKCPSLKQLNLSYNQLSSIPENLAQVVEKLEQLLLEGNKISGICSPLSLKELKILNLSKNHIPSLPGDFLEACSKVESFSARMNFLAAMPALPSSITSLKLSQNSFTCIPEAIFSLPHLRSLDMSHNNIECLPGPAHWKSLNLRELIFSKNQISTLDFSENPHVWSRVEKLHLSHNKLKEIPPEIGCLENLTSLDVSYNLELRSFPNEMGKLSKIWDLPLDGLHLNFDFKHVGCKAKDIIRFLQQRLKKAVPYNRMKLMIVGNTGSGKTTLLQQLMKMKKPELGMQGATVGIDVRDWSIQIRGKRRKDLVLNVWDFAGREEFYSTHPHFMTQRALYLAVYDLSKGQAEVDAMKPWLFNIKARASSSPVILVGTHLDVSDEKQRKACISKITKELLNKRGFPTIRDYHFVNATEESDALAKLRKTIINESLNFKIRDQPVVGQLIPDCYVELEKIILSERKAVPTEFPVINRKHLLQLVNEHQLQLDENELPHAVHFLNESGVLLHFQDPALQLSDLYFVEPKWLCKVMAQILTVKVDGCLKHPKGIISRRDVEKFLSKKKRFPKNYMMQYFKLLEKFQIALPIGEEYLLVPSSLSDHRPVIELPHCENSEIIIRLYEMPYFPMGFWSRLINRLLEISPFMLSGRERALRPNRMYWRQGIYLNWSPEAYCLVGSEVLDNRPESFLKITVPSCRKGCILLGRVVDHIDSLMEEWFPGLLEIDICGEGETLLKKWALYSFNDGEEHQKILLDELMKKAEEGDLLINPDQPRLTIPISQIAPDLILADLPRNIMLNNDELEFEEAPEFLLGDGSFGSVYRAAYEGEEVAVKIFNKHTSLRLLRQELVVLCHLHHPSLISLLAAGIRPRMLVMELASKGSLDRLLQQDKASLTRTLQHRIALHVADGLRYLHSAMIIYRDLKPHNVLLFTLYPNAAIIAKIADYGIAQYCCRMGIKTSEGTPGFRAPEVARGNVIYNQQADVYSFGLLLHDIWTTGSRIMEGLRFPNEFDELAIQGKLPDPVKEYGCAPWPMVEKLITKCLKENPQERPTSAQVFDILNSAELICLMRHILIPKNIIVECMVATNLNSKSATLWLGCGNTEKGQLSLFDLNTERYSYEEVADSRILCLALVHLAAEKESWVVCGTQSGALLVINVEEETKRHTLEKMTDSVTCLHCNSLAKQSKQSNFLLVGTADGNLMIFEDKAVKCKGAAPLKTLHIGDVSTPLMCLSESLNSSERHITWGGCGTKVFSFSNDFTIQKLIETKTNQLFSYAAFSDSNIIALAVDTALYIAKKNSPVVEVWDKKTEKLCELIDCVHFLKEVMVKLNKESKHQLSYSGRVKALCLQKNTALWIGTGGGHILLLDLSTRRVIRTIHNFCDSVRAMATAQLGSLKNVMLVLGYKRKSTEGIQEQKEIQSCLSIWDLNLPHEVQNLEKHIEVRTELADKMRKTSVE

Take `O=C(Nc1cccnc1)c1cc(-c2ccnc(F)c2)ccc1OCc1ccccc1` [GSK2578215A, 2-(benzyloxy)-5-(2-fluoropyridin-4-yl)-N-(pyridin-3-yl)benzamide]: the inhibition at 10 µM on smMLCK is above 50%. The ambit score at ALK and on FLT3(D835Y) was below 10 each time. Moreover, the clearance in data set [1] stood at 22.1 mL/min/kg. Also, on LRRK2 (brain), the “inhibition of LRRK2 Ser910 or Ser935 phosphorylation in brain” value is on record as “no inhibition; also recorded: failed to induce significant inhibition”. In addition, the “Ser910 and Ser935 dephosphorylation of LRRK2 in kidney” value on LRRK2 (kidney) was “complete Ser910 and Ser935 dephosphorylation”. Also, on LRRK2 (spleen), the “Ser910 and Ser935 dephosphorylation of LRRK2 in spleen” value is “complete Ser910 and Ser935 dephosphorylation”. This compound also registered an IC50 in data set [2] of around 10 nM. In addition, the “concentration inducing dephosphorylation of Ser910 and 935” value on GFP-LRRK2[A2016T] lay within 1 to 3 µM.
